Laboratory results: patent publication US20190021323A1, “Use of Gibberellin A5 to Increase the Yield and Quality of Wine Grapes” (UTI Limited Partnership, priority 2016, published 2019)

Columns and labels:
[1] = test system: Thompson seedless table grape vines; conditions: applied about three weeks before bloom; cited from earlier work
[2] = test system: Vitis vinifera L. cv. Malbec; test: Field trial 2014-2015: GA5, GA4, GA4/7 bunch dip or spray on cv. Malbec grapevines (Example 3); type: in vivo
Description: (§1) A third trial was done in the same vineyard used for the trials outlined in Examples 1 and 2. Grapevines were selected from a clone of Vitis vinifera L. cv. Malbec, planted in 1997 on their own roots in a commercial vineyard located in Gualtallary, Mendoza, Argentina (1450 m above sea level, 69°15′37″ W and 33°23′51″ S). The vines were trained on a vertical trellis system arranged in north-south oriented rows spaced 2 m apart, with 1.20 m between plants within the row. The grapevines were maintained with no soil water restriction during the whole experiment by the use of a drip irrigation system (4 liters per plant per night), and the fruiting vines were protected with anti-hail nets (black polyethylene).
The effects of two concentrations (i.e., 10 mg/L and 50 mg/L) of three different gibberellin compositions (GA5, GA4, and a mixture of GA4 and GA7 referred to as “GA4/7”) on berry and bunch development and quality in treated cv. […] All of the treatment solutions, including the water controls, contained 0.1% v/v of the surfactant TRITON®-X and a minimal amount of 96% EtOH to dissolve the various GA5, GA4, and GA4/7 powders (the control treatments also included a minimal amount of 96% EtOH).
The effects of GA applications were assessed at two stages of berry development. The first group of test plants was treated at 60 DBV (i.e. 31 DAF) while a second group of test plants was treated at 30 DBV (i.e. 61 DAF). At each application stage, the groups of test plants receiving selected treatments were each divided into two subsets. The developing berry bunches on the first subset of plants for a selected treatment were treated by submerging into a 750-mL volume of the test solution for a period of 15 sec during late afternoon. The second subset of plants was treated with a spray application of 150 mL of test solution per each test plant. The spray applications were made in late afternoon.
For each of the two application stages, a randomized complete block design with 14 treatments and 5 blocks was used for a […]. The experimental unit consisted of one plant selected as being “typical” among 6 consecutive plants in a selected row. Each row was a replicate, i.e., a “block”. There were thus 40 experimental units (plants) utilized for each growth regulator. All the grapevines in the 5 replicate rows were pruned to 8 “fruiting” shoots and the crop load on each shoot was thinned to two bunches per shoot at the beginning of the experiment (31 DAF or 60 DBV). One shoot per experimental unit was selected, marked and used for the non-destructive measurements (shoot length, number of leaves and leaf area), while the rest of the shoots were used for berry sampling.
(§2) At harvest, the two selected and marked bunches from one fruiting shoot per experimental unit, i.e. not used for berry sampling, were collected in nylon bags and weighed. Then the number of berries per bunch was counted.
Samples of 25 berries per experimental unit were randomly collected in nylon bags (5 berries from each bunch; two top berries, two middle berries, one bottom berry; for each test vine, berries were collected from 5 bunches exposed to the west). These berry samples were taken at 132 DAF (132 DAF being the time of ripe berry harvest). The berries were kept on dry ice to prevent enzyme activity and dehydration and were taken quickly to the laboratory where berry fresh weights (FW) were determined before the berries were stored at −20° C. Then, 15 berries per experimental unit were defrosted at ambient room temperature after which, the skins were separated from fruit pulp and seeds by hand. The fruit pulp was collected in nylon bags, crushed by hand pressing and the relative concentration of sugars (°Brix) was measured in the pulp juice with a PAL-1 digital hand-held refractometer (Atago Co., Ltd., Tokyo, Japan). The °Brix was multiplied by the berries' FW to calculate sugar on a per berry basis (absolute amounts). […]

[3] = test system: Vitis vinifera L. cv. Malbec; test: Field trial 2012-2013: GA5 bunch dip once at 30 DBV on cv. Malbec grapevines (Example 2); type: in vivo
Description: as §1, with “second” for “third”, “trial” for “trials”, “Example 1.” for “Examples 1 and 2.”
The treatments were applied by submerging all of the fruit bunches on each vine in a treatment group in the selected aqueous solution (fruit bunches from control vines were submerged in water). All of the treatment solutions, including the water controls, contained 0.1% v/v of the surfactant TRITON®-X and a minimal amount of 95% EtOH to dissolve the GA5 powders (the control treatments also included a minimal amount of 95% EtOH). All treatments were applied once at 30 DBV (i.e. 61 DAF). Each berry bunch on a test vine was submerged in 750 mL of the selected treatment solution for 15 sec during a late afternoon time period.
A randomized complete block design with 5 treatments and 5 blocks was used during the 2012-2013 production season. The experimental unit consisted of one plant selected as being “typical” among 6 consecutive plants in a selected row. Each row was a replicate, i.e., a “block”. There were thus 5 experimental units (plants) utilized for each treatment, one for each row (block). All the grapevines in the 5 replicate rows were pruned to 8 “fruiting” shoots and the crop load on each shoot was thinned to two bunches per shoot at 40 days after flowering (DAF). One shoot per experimental unit was selected, marked and used for the non-destructive measurements (shoot length, number of leaves and leaf area), while the rest of the shoots were used for berry sampling.
(§3) Shoot length, number of leaves and midrib (main vein) length of all leaves were measured at: (i) 30 DBV just before application of the first set of treatments, and (ii) at harvest. At harvest, all of the leaves from 10 randomly selected shoots were collected in nylon bags, kept on ice to prevent dehydration, and were taken to the laboratory where the length of the leaf midribs, weights of separated leaves, and the weights of 1-cm^2 leaf discs were determined. Then, the leaf areas (LA) were calculated and, based on the weights, a linear regression model between the LA and the midrib length was generated. The correlation coefficient (r^2) was 0.91 and thus the model was used to transform the non-destructive measurements of midrib length into LA values.
as §2

[4] = test system: Vitis vinifera L. cv. Malbec; test: Field trial 2010-2011: GA5 bunch dip on cv. Malbec grapevines (Example 1); type: in vivo
Description: as §1, with “Grapevines” for “A third trial was done in the same vineyard used for the trials outlined in Examples 1 and 2. Grapevines”
The treatments were applied by submerging all of the fruit bunches on each vine in a treatment group in the selected aqueous solution (fruit bunches from control vines were submerged in water). All of the treatment solutions, including the water controls, contained 0.1% v/v of the surfactant TRITON®-X (TRITON is a registered trademark of the Dow Chemical Co., Indianapolis, Ind., USA) and a minimal amount of 95% EtOH to dissolve the GA5 powders (the control treatments also included a minimal amount of 95% EtOH). The treatments were applied three times; 56 days after flowering (DAF; i.e., 35 days before veraison—“DBV”), 70 DAF (i.e., 21 DBV), and 91 DAF (i.e., 0 DBV). The 91 DAF treatment time corresponded to veraison. Each berry bunch on a test vine was submerged in 750 mL of the selected treatment solution for 15 sec during a late afternoon time period.
A randomized complete block design with 4 treatments and 5 blocks was used during the 2010-2011 production season. The experimental unit consisted of one plant selected as being “typical” among 6 consecutive plants in a selected row. Each row was a replicate, i.e., a “block”. There were thus 5 experimental units (plants) utilized for each treatment, one for each row (block). All the grapevines in the 5 replicate rows were pruned to 8 “fruiting” shoots and the crop load on each shoot was thinned to two bunches per shoot at 40 days after flowering (DAF). One shoot per experimental unit was selected, marked and used for the non-destructive measurements (shoot length, number of leaves and leaf area), while the rest of the shoots were used for berry sampling.
as §3, with “56 DAF/35” for “30”, “132 DAF (harvest date).” for “at harvest.”, “the 132 DAF,” for “harvest,”
At 132 DAF, the two selected and marked bunches from one fruiting shoot per experimental unit, i.e. not used for berry sampling, were collected in nylon bags and weighed. Then the number of berries per bunch was counted.
Finally, in the next year's flowering and fruiting season (early 2012) the number of fruit clusters bunches per shoot were counted in order to assess GA5 treatment effects on return bloom.

[5] = 10 and 50 mg/L, submersion and spraying, 60 DBV and 30 DBV, vs controls

SMILES: C=C1C[C@]23C[C@@]1(O)CC[C@H]2[C@@]12C=C[C@H](O)[C@@](C)(C(=O)O1)[C@H]2[C@@H]3C(=O)O [GA3, gibberellic acid]
- Berry cluster compactness [1]: reduce berry cluster compactness
- Fruit set [1]: reduce fruit set

SMILES: C=C1C[C@]23C[C@@]1(O)CC[C@H]2[C@@]12CC=C[C@@](C)(C(=O)O1)[C@H]2[C@@H]3C(=O)O [GA5, gibberellin A5]
- Anthocyanin content per berry skin [2, 5]: tended to be generally increased
- Average per bunch fresh weight [2, 5]: increased
- Dry weight per individual berry [2, 5]: generally increased
- Fresh weight per individual berry [2, 5]: generally increased
- Number of berries per bunch [2, 5]: increased
- Sugar content per berry [2, 5]: (non-significant) increased
- Total polyphenol index (TPI) per berry skin [2, 5]: tended to be generally increased
- Shoot length, significance vs Control ([3]; 5 mg/L, dip once at 30 DBV, FIG. 3A): statistically significantly different from the Control
- Per bunch fresh weight ([3]; 20 mg/L, dip once at 30 DBV, FIG. 4A): significantly increased
- Number of berries per bunch ([3]; 20 mg/L, dip once at 30 DBV, FIG. 4B): significantly increased
- Grape yield per plant and per hectare ([3]; 20 mg/L, inferred from bunch weight): appreciably increased
- Shoot length ([3]; all four treatments 5, 20, 50, 250 mg/L, dip once at 30 DBV, at harvest, FIG. 3A): decreased
- Leaf surface area per shoot ([3]; all four treatments 5, 20, 50, 250 mg/L, dip once at 30 DBV, at harvest, FIG. 3B): decreased
- Vegetative growth of shoots (shoot length, number of leaves) ([4]; 5, 50, 250 mg/L, bunch dip at 35, 21 and 0 DBV, post-56 DAF to harvest, vs controls, FIGS. 1A-1C): not significantly affected
- Return bloom: number of fruit clusters (bunches) per shoot in the following season ([4]; assessed early 2012, FIG. 2C): no significant effects
- Per bunch fresh weight of grape berry bunches ([4]; lower GA5 application rates, dip at 56, 70 and 91 DAF, harvested at 132 DAF, FIG. 2A): significant increases
- Number of berries per bunch ([4]; lower GA5 application rates, dip at 56, 70 and 91 DAF, harvested at 132 DAF, FIG. 2B): significant increases
- Leaf surface area per shoot ([4]; lower concentrations 5 mg/L, 50 mg/L, bunch dip at 35, 21 and 0 DBV, FIG. 1C): tended to reduce

SMILES: C=C1C[C@]23C[C@H]1CCC2[C@@]12CC[C@H](O)C(C)(C(=O)O1)C2[C@@H]3C(=O)O (stereo partly drawn) [GA4, gibberellin A4]
- Harvest yield (average per bunch fresh weight), significance vs controls ([2]; 8 rate/method/stage combinations, FIG. 8A): significantly different from the controls in 5 out of 8 rates
- Anthocyanin content per berry skin [2, 5]: appreciable increases
- Average per bunch fresh weight [2, 5]: increased
- Dry weight per individual berry [2, 5]: tended to be generally increased
- Number of berries per bunch [2, 5]: increased
- Sugar content per berry [2, 5]: tended to result in increased
- Total polyphenol index (TPI) per berry skin [2, 5]: appreciable increases
